Test results as given in US11046753B2, “Antibody composition and buffer system therefor” (INNOVA BIOSCIENCES LTD, priority 2013, dated 2021).
“Also recorded” adds a separate entry of the source.

How the values were obtained:
[1] = Effect of additives on the thiolation reagent 2-iminothiolane (thiol release, DTNB, A405); details: 50 mM additive, pH 8.0, 30 minutes
Description: 20 μl of 2 mM 2-iminothiolane was added to each well and mixed quickly and the absorbance values were read at 405 nm every minute for 30 minutes using a Tecan Infinite M200 plate reader with i-Control 1.4 software. […] In control reaction, there is a steady linear increase in absorbance as the reagent is hydrolysed by water. […] The rising baseline can be attributed to the known sensitivity of 2-iminothiolane to hydrolysis at alkaline pH values.

[2] = Isothiocyanate (FITC) conjugation of rabbit IgG in presence of additive, dye to protein ratio; details: 50 mM additive, CHES pH 9.0
Description: Conjugates were desalted on PD10 columns (GE Healthcare) in TBS buffer and the absorbance values of the eluted solutions were determined at 280 nm and 495 nm. The ratio of moles dye to moles of protein for antibody dye conjugates in the presence of various additives is shown in FIG. 3.

[3] = Lightning-Link fluorescein conjugation of goat anti-rabbit IgG in presence of additive, fluorescence assay; details: 50 mM additive
Description: Black 96-well plates (Greiner Bio-One (code 655077)) were incubated with 50 ul rabbit IgG (1 ug/well) overnight at 4° C. The plates were blocked with TBS/0.1% BSA for 1 hour at room temperature and washed five times with TBS (wash buffer). Fluorescent antibody conjugates were serially diluted in TBS/0.1% BSA and 50 ul aliquots were added to wells in triplicate. After incubation at room temperature for 1 hour, the plate was washed five times and fluorescence emission was read in using a Tecan Infinite M200 plate reader with i-Control 1.4 software with the appropriate excitation/emission settings (fluorescein, 490 nm/535 nm; phycoeythrin, 535 nm/575 nm. Fluorescence data was plotted as a function of conjugate dilution. To compare results for additives tested in different experiments the data were transformed into a percentage of a control value (i.e. the signal for conjugate prepared in the absence of any test additive).
Reactions were carried out according to the manufacturer's standard protocol except that the additives were included at up to 50 mM concentration in conjugation reactions of Goat-anti-rabbit IgG using fluorescein Lightning-Link kit (product code 707-0010, Innova Biosciences, UK). Conjugates were tested according to the protocol described in Example 2.

[4] = NHS ester (fluorescein) conjugation of rabbit IgG in presence of additive, dye to protein ratio; details: 50 mM additive, sodium phosphate pH 8.0
Description: Conjugates were desalted on PD10 columns equilibrated in TBS buffer and absorbance values of the eluted solutions were determined at 280 nm and 495 nm. The ratio of moles dye to moles of protein for antibody dye conjugates in the presence of various additives is shown in FIG. 4.

[5] = Carbodiimide (EDC)-mediated conjugation of goat anti-rabbit IgG to carboxylated gold nanoparticles in presence of additive, read by lateral flow assay; details: pH 5
Description: Molecules were tested initially at pH 5 in EDC-mediated reactions with carboxylated gold particles (InnovaCoat GOLD, Innova Biosciences). Potentially interesting molecules from this screening exercise were further evaluated in NHS ester reactions, isothiocyanate reactions and thiolation reactions involving iminothiolane. All of these reactions are widely used in the antibody conjugation field and all would be expected to suffer from interference in the presence of glycine.
Lateral flow test strips (4 mm wide) were prepared from nitrocellulose membrane (Millipore Hi Flow plus 90) striped with goat anti-rabbit IgG (test line) and biotin-BSA (control line). Strips were housed in plastic cartridges and samples of gold conjugate (80 ul) were added to the sample pad. Cartridges were allowed to stand for 30 min and then read using a ESE-Quant GOLD reader—QIAGEN. Each sample was spiked with a fixed amount of streptavidin-gold (Innova biosciences—Product code: 250-0200), which binds to the control line, to check that each test strip had run correctly and that test line data was valid.
10 μg of goat anti-rabbit IgG (GAR) was used per ml of coated 40 nm nanoparticles with carboxyl functionality (InnovaCoat GOLD, Innova Biosciences) at […] in the presence of additives at 50 mM final concentration. Typically reactions were set up with the following additions: 40 μl of 40 nm InnovaCoat (carboxylated) gold nanopartcles, were incubated 5 minutes with 4 μl 0.1 mg/ml GAR, 20 μl water, and 80 μl of 100 mM MES buffer containing 100 mM of additive, pH 5.0. Next, 16 μl of 1 mM EDC was added and after 10 min incubation at 22° C., 20 μl of 10×TBS/1% Tween20 and 20 μl of water was added to give 2 OD conjugate.
Gold conjugates were mixed when required with rabbit IgG ((final concentration 50 ng/ml) at 22° C. Conjugates were 0.2 OD final concentration (i.e. 1/10 dilution from stock conjugates). Samples were run in triplicate on lateral flow test strips as described in Example 1.

Substance: Glycine
- release of thiols from 2-iminothiolane versus control [1]: rapid hydrolysis and ring opening; also recorded: reacts rapidly
- ratio of moles dye to moles of protein versus control, FITC [2]: significant interference
- interference in Lightning-Link fluorescein conjugation reaction [3]: significant interference
- ratio of moles dye to moles of protein versus control, fluorescein NHS ester [4]: substantial interference
- % of Signal [5]: 94%
- interference in carbodiimide-mediated antibody-gold nanoparticle conjugation reaction [5]: no interference; also recorded: do not interfere; also recorded: does not
